Target: human full-length MKNK1 (Homo sapiens (Human), UniProt Q9BUB5, T344D)
Assay: MKNK1 kinase high ATP assay (TR-FRET)
Format: biochemical
Conditions: high ATP (2 mM), 15 min preincubation with enzyme; read-out: MKNK1 IC50
In short: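 GST-tagged full-length MKNK1 (aa 1–424, T344D; insect-cell expressed) preincubated 15 min with compound, then reacted 30 min at 22 °C with 2 mM ATP and 0.06 μM biotinylated peptide (final) in HEPES pH 7.5 buffer. Phosphopeptide detected by TR-FRET 665/620 ratio, normalized to no-inhibitor and no-enzyme controls.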

Sequence of human full-length MKNK1 (Q9BUB5 other isoform, or with tags, fused parts or gaps T344D): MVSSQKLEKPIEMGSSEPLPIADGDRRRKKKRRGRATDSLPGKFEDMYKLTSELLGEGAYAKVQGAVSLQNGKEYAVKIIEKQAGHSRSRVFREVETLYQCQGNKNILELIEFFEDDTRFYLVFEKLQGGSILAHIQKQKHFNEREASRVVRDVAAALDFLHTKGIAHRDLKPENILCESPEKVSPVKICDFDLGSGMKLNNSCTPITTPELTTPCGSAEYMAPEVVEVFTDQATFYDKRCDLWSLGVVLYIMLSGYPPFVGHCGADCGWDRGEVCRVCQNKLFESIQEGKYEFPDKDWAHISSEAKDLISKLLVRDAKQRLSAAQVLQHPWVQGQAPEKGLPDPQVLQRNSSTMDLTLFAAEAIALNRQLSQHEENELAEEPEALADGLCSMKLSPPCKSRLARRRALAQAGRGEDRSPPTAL

SMILES | IC50 [nM]
COc1cn2nccc2cc1Nc1ncnc2sc3c(c12)CC[C@H](C(=O)NCCC(F)(F)F)C3 [Example 80, (7S)-4-[(6-Methoxypyrazolo[1,5-a]pyridin-5-yl)amino]-N-(3,3,3-trifluoropropyl)-5,6,7,8-tetrahydro[1]benzothieno[2,3-d]pyrimidine-7-carboxamide] | 3
COc1cn2nccc2cc1Nc1ncnc2sc3c(c12)CC[C@H](C(=O)NCC(C)(C)O)C3 [Example 81, (7S)—N-(2-Hydroxy-2-methylpropyl)-4-[(6-methoxypyrazolo[1,5-a]pyridin-5-yl)amino]-5,6,7,8-tetrahydro[1]benzothieno[2,3-d]pyrimidine-7-carboxamide] | 2
COc1cn2nccc2cc1Nc1ncnc2sc3c(c12)CC[C@H](C(=O)NCCN(C)C)C3 [Example 82, (7S)—N-[2-(Dimethylamino)ethyl]-4-[(6-methoxypyrazolo[1,5-a]pyridin-5-yl)amino]-5,6,7,8-tetrahydro[1]benzothieno[2,3-d]pyrimidine-7-carboxamide] | 3
COc1cn2nccc2cc1Nc1ncnc2sc3c(c12)CC[C@H](C(=O)NCCO)C3 [Example 83, (7S)—N-(2-Hydroxyethyl)-4-[(6-methoxypyrazolo[1,5-a]pyridin-5-yl)amino]-5,6,7,8-tetrahydro[1]benzothieno[2,3-d]pyrimidine-7-carboxamide] | 3
COCCNC(=O)[C@H]1CCc2c(sc3ncnc(Nc4cc5ccnn5cc4OC)c23)C1 [Example 84, (7S)—N-(2-Methoxyethyl)-4-[(6-methoxypyrazolo[1,5-a]pyridin-5-yl)amino]-5,6,7,8-tetrahydro[1]benzothieno[2,3-d]pyrimidine-7-carboxamide] | 3
COc1cn2nccc2cc1Nc1ncnc2sc3c(c12)CC[C@H](C(=O)NC(C)(C)C)C3 [Example 86, (7S)—N-tert-Butyl-4-[(6-methoxypyrazolo[1,5-a]pyridin-5-yl)amino]-5,6,7,8-tetrahydro[1]benzothieno[2,3-d]pyrimidine-7-carboxamide] | 4
COc1cn2nccc2cc1Nc1ncnc2sc3c(c12)CC[C@H](C(=O)NC1(C)CCC1)C3 [Example 87, (7S)-4-[(6-Methoxypyrazolo[1,5-a]pyridin-5-yl)amino]-N-(1-methylcyclobutyl)-5,6,7,8-tetrahydro[1]benzothieno[2,3-d]pyrimidine-7-carboxamide] | 4
COc1cn2nccc2cc1Nc1ncnc2sc3c(c12)CC[C@H](C(=O)Nc1ccc(F)cc1)C3 [Example 88, (7S)—N-(4-Fluorophenyl)-4-[(6-methoxypyrazolo[1,5-a]pyridin-5-yl)amino]-5,6,7,8-tetrahydro[1]benzothieno[2,3-d]pyrimidine-7-carboxamide] | 8
COc1cn2nccc2cc1Nc1ncnc2sc3c(c12)CC[C@H](C(=O)Nc1cccc(Cl)c1)C3 [Example 89, (7S)—N-(3-Chlorophenyl)-4-[(6-methoxypyrazolo[1,5-a]pyridin-5-yl)amino]-5,6,7,8-tetrahydro[1]benzothieno[2,3-d]pyrimidine-7-carboxamide] | 24
COc1cn2nccc2cc1Nc1ncnc2sc3c(c12)CC[C@H](C(=O)Nc1ccc(Cl)c(Cl)c1)C3 [Example 90, (7S)—N-(3,4-Dichlorophenyl)-4-[(6-methoxypyrazolo[1,5-a]pyridin-5-yl)amino]-5,6,7,8-tetrahydro[1]benzothieno[2,3-d]pyrimidine-7-carboxamide] | 235
COc1cn2nccc2cc1Nc1ncnc2sc3c(c12)CC[C@H](C(=O)Nc1ccc(F)c(Cl)c1)C3 [Example 91, (7S)—N-(3-Chloro-4-fluorophenyl)-4-[(6-methoxypyrazolo[1,5-a]pyridin-5-yl)amino]-5,6,7,8-tetrahydro[1]benzothieno[2,3-d]pyrimidine-7-carboxamide] | 48
COc1cn2nccc2cc1Nc1ncnc2sc3c(c12)CC[C@H](C(=O)Nc1cccc(F)c1)C3 [Example 92, (7S)—N-(3-Fluorophenyl)-4-[(6-methoxypyrazolo[1,5-a]pyridin-5-yl)amino]-5,6,7,8-tetrahydro[1]benzothieno[2,3-d]pyrimidine-7-carboxamide] | 7
COc1cn2nccc2cc1Nc1ncnc2sc3c(c12)CC[C@H](C(=O)Nc1ccc2[nH]ccc2c1)C3 [Example 93, (7S)—N-(1H-Indol-5-yl)-4-[(6-methoxypyrazolo[1,5-a]pyridin-5-yl)amino]-5,6,7,8-tetrahydro[1]benzothieno[2,3-d]pyrimidine-7-carboxamide] | 3
CCN(C)C(=O)[C@H]1CCc2c(sc3ncnc(Nc4cc5ccnn5cc4OC)c23)C1 [Example 94, (7S)—N-Ethyl-4-[(6-methoxypyrazolo[1,5-a]pyridin-5-yl)amino]-N-methyl-5,6,7,8-tetrahydro[1]benzothieno[2,3-d]pyrimidine-7-carboxamide] | 1
COc1cn2nccc2cc1Nc1ncnc2sc3c(c12)CC[C@H](C(=O)N(C)CCC(F)(F)F)C3 [Example 96, (7S)-4-[(6-Methoxypyrazolo[1,5-a]pyridin-5-yl)amino]-N-methyl-N-(3,3,3-trifluoropropyl)-5,6,7,8-tetrahydro[1]benzothieno[2,3-d]pyrimidine-7-carboxamide] | 7
CCCCN(C)C(=O)[C@H]1CCc2c(sc3ncnc(Nc4cc5ccnn5cc4OC)c23)C1 [Example 97, (7S)—N-Butyl-4-[(6-methoxypyrazolo[1,5-a]pyridin-5-yl)amino]-N-methyl-5,6,7,8-tetrahydro[1]benzothieno[2,3-d]pyrimidine-7-carboxamide] | 1
COc1cn2nccc2cc1Nc1ncnc2sc3c(c12)CC[C@H](C(=O)N(C)CCCN(C)C)C3 [Example 99, (7S)—N-[3-(Dimethylamino)propyl]-4-[(6-methoxypyrazolo[1,5-a]pyridin-5-yl)amino]-N-methyl-5,6,7,8-tetrahydro[1]benzothieno[2,3-d]pyrimidine-7-carboxamide] | 1
COc1cn2nccc2cc1Nc1ncnc2sc3c(c12)CC[C@H](C(=O)N(C)CCN(C)C)C3 [Example 101, (7S)—N-[2-(Dimethylamino)ethyl]-4-[(6-methoxypyrazolo[1,5-a]pyridin-5-yl)amino]-N-methyl-5,6,7,8-tetrahydro[1]benzothieno[2,3-d]pyrimidine-7-carboxamide] | 2
COc1cn2nccc2cc1Nc1ncnc2sc3c(c12)CC[C@H](C(=O)N(C)C(C)C)C3 [Example 105, (7S)-4-[(6-Methoxypyrazolo[1,5-a]pyridin-5-yl)amino]-N-methyl-N-(propan-2-yl)-5,6,7,8-tetrahydro[1]benzothieno[2,3-d]pyrimidine-7-carboxamide] | 2
COc1cn2nccc2cc1Nc1ncnc2sc3c(c12)CC[C@H](C(=O)N1CC[C@H](N(C)C)C1)C3 [Example 107, [(3S)-3-(Dimethylamino)pyrrolidin-1-yl](7S)-4-[(6-methoxypyrazolo[1,5-a]pyridin-5-yl)amino]-5,6,7,8-tetrahydro[1]benzothieno[2,3-d]pyrimidin-7-ylmethanone] | < 1
COc1cn2nccc2cc1Nc1ncnc2sc3c(c12)CC[C@H](C(=O)N1C[C@H](O)[C@@H](O)C1)C3 [Example 108, [(3S,4S)-3,4-Dihydroxypyrrolidin-1-yl](7S)-4-[(6-methoxypyrazolo[1,5-a]pyridin-5-yl)amino]-5,6,7,8-tetrahydro[1]benzothieno[2,3-d]pyrimidin-7-ylmethanone] | 1
COc1cn2nccc2cc1Nc1ncnc2sc3c(c12)CC[C@H](C(=O)N1CCC(N(C)C)CC1)C3 [Example 109, [4-(Dimethylamino)piperidin-1-yl](7S)-4-[(6-methoxypyrazolo[1,5-a]pyridin-5-yl)amino]-5,6,7,8-tetrahydro[1]benzothieno[2,3-d]pyrimidin-7-ylmethanone] | 1
COc1cn2nccc2cc1Nc1ncnc2sc3c(c12)CC[C@H](C(=O)N1CCC(N(C)CCN(C)C)CC1)C3 [Example 110] | < 1
COc1cn2nccc2cc1Nc1ncnc2sc3c(c12)CC[C@H](C(=O)N(CCO)CCCN(C)C)C3 [Example 111, (7S)—N-[3-(Dimethylamino)propyl]-N-(2-hydroxyethyl)-4-[(6-methoxypyrazolo[1,5-a]pyridin-5-yl)amino]-5,6,7,8-tetrahydro[1]benzothieno[2,3-d]pyrimidine-7-carboxamide] | 3
COc1cn2nccc2cc1Nc1ncnc2sc3c(c12)CC[C@H](C(=O)N1C[C@@H](C)O[C@@H](C)C1)C3 [Example 112, [(2R,6S)-2,6-Dimethylmorpholin-4-yl](7S)-4-[(6-methoxypyrazolo[1,5-a]pyridin-5-yl)amino]-5,6,7,8-tetrahydro[1]benzothieno[2,3-d]pyrimidin-7-ylmethanone] | 2
COc1cn2nccc2cc1Nc1ncnc2sc3c(c12)CC[C@H](C(=O)N1CCN(CCN(C)C)CC1)C3 [Example 114, 4-[2-(Dimethylamino)ethyl]piperazin-1-yl(7S)-4-[(6-methoxypyrazolo[1,5-a]pyridin-5-yl)amino]-5,6,7,8-tetrahydro[1]benzothieno[2,3-d]pyrimidin-7-ylmethanone] | < 1
CCN(CCN(C)C)C(=O)[C@H]1CCc2c(sc3ncnc(Nc4cc5ccnn5cc4OC)c23)C1 [Example 115, (7S)—N-[2-(Dimethylamino)ethyl]-N-ethyl-4-[(6-methoxypyrazolo[1,5-a]pyridin-5-yl)amino]-5,6,7,8-tetrahydro[1]benzothieno[2,3-d]pyrimidine-7-carboxamide] | 1
CCN(CCO)C(=O)[C@H]1CCc2c(sc3ncnc(Nc4cc5ccnn5cc4OC)c23)C1 [Example 117, (7S)—N-Ethyl-N-(2-hydroxyethyl)-4-[(6-methoxypyrazolo[1,5-a]pyridin-5-yl)amino]-5,6,7,8-tetrahydro[1]benzothieno[2,3-d]pyrimidine-7-carboxamide] | 1

— patent publication US10487092B2, “Pyrazolopyridinamines as MKNK1 and MKNK2 inhibitors” (BAYER PHARMA AKTIENGESELLSCHAFT, priority 2014, dated 2019)
